The record followed here is the NIST ThermoML archive (doi:10.1016/j.jct.2010.05.002).

The nature of the data set: Molar enthalpy of transition or fusion. As to conditions: Crystal; Adiabatic calorimetry.

± gives the expanded uncertainty stated by the source.

On to `CC(C)(C)c1ccc(-c2ccccc2)cc1` [4-(1,1-dimethylethyl)-1,1'-biphenyl], for which the “Molar enthalpy of transition or fusion” value came to 4.75 ± 0.163 kcal/mol.

For `Cc1ccc(-c2ccccc2)cc1` [4-methylbiphenyl], the “Molar enthalpy of transition or fusion” value came out at 2.94 ± 0.0669 kcal/mol.
